According to article PMC2857986 (Journal of the American Chemical Society, 2010):

Test: Gel formation and CD of expected cleavage fragments
Type: physicochemical

CD spectrum (secondary structure) (see supporting information): simple random coil signature
Substance: KSLSLS [MDP4a]
Gel formation / self-assembly (phosphate buffer, physiological pH, in words): no longer able to assemble and form insoluble aggregates
